Source: PubChem BioAssay AID1982 (Sanford-Burnham Center for Chemical Genomics, 2009)
Active and inactive are the calls of the source. No rule for the calls is given here.

Assays:
Assay in all cases: kinase panel binding selectivity, selectivity assay, biochemical, KINOMEscan (AID 1982)
ANKK1 = details: KINOMEscan 353-kinase binding panel, qPCR, at 10 µM, hits give low values
[1] = target: High affinity nerve growth factor receptor (Homo sapiens) (UniProt P04629); details: KINOMEscan 353-kinase binding panel, qPCR; TRKA; at 10 µM; hits give low values
[2] = target: Cyclin-dependent kinase 19 (Homo sapiens) (UniProt Q9BWU1); details: KINOMEscan 353-kinase binding panel, qPCR; CDK11; at 10 µM; hits give low values
[3] = target: Ribosomal protein S6 kinase alpha-5 (Homo sapiens) (UniProt O75582); details: KINOMEscan 353-kinase binding panel, qPCR, at 10 µM, hits give low values
RIPK2 = details: KINOMEscan 353-kinase binding panel, qPCR, at 10 µM, hits give low values
PFTK1 = details: KINOMEscan 353-kinase binding panel, qPCR, at 10 µM, hits give low values
[4] = target: Protein-tyrosine kinase 6 (Homo sapiens) (UniProt Q13882); details: KINOMEscan 353-kinase binding panel, qPCR; PTK6; at 10 µM; hits give low values
TXK = details: KINOMEscan 353-kinase binding panel, qPCR, at 10 µM, hits give low values
[5] = target: Tyrosine-protein kinase Fer (Homo sapiens) (UniProt P16591); details: KINOMEscan 353-kinase binding panel, qPCR, at 10 µM, hits give low values
[6] = target: Testis-specific serine/threonine-protein kinase 1 (Homo sapiens) (UniProt Q9BXA7); details: KINOMEscan 353-kinase binding panel, qPCR; TSSK1; at 10 µM; hits give low values
PCTK1 = details: KINOMEscan 353-kinase binding panel, qPCR, at 10 µM, hits give low values
RIPK1 = details: KINOMEscan 353-kinase binding panel, qPCR, at 10 µM, hits give low values
[7] = target: SRSF protein kinase 1 (Homo sapiens) (UniProt Q96SB4); details: KINOMEscan 353-kinase binding panel, qPCR; SRPK1; at 10 µM; hits give low values
[8] = target: Serine/threonine-protein kinase pim-3 (Homo sapiens) (UniProt Q86V86); details: KINOMEscan 353-kinase binding panel, qPCR; PIM3; at 10 µM; hits give low values
[9] = target: Serine/threonine-protein kinase MRCK alpha (Homo sapiens) (UniProt Q5VT25); details: KINOMEscan 353-kinase binding panel, qPCR; MRCKA; at 10 µM; hits give low values
BMPR1B = details: KINOMEscan 353-kinase binding panel, qPCR, at 10 µM, hits give low values
ADCK4 = details: KINOMEscan 353-kinase binding panel, qPCR, at 10 µM, hits give low values
[10] = target: Receptor tyrosine-protein kinase erbB-4 (Homo sapiens) (UniProt Q15303); details: KINOMEscan 353-kinase binding panel, qPCR; ERBB4; at 10 µM; hits give low values
BIKE = details: KINOMEscan 353-kinase binding panel, qPCR, at 10 µM, hits give low values
[11] = target: Calcium/calmodulin-dependent protein kinase kinase 2 (Homo sapiens) (UniProt Q96RR4); details: KINOMEscan 353-kinase binding panel, qPCR; CAMKK2; at 10 µM; hits give low values
LATS2 = details: KINOMEscan 353-kinase binding panel, qPCR, at 10 µM, hits give low values
EPHA6 = details: KINOMEscan 353-kinase binding panel, qPCR, at 10 µM, hits give low values
[12] = target: Ribosomal protein S6 kinase alpha-3 (Homo sapiens) (UniProt P51812); details: KINOMEscan 353-kinase binding panel, qPCR; RPS6KA3(Kin.Dom.1); at 10 µM; hits give low values
ADCK3 = details: KINOMEscan 353-kinase binding panel, qPCR, at 10 µM, hits give low values
PIK3C2B = details: KINOMEscan 353-kinase binding panel, qPCR, at 10 µM, hits give low values
[13] = target: Casein kinase I isoform gamma-2 (Homo sapiens) (UniProt P78368); details: KINOMEscan 353-kinase binding panel, qPCR; CSNK1G2; at 10 µM; hits give low values
ERK3 = details: KINOMEscan 353-kinase binding panel, qPCR, at 10 µM, hits give low values
[14] = target: Activated CDC42 kinase 1 (Homo sapiens) (UniProt Q07912); details: KINOMEscan 353-kinase binding panel, qPCR; TNK2; at 10 µM; hits give low values
MEK2 = details: KINOMEscan 353-kinase binding panel, qPCR, at 10 µM, hits give low values
ERK5 = details: KINOMEscan 353-kinase binding panel, qPCR, at 10 µM, hits give low values
CHEK2 = details: KINOMEscan 353-kinase binding panel, qPCR, at 10 µM, hits give low values
[15] = target: Casein kinase I isoform delta (Homo sapiens) (UniProt P48730); details: KINOMEscan 353-kinase binding panel, qPCR; CSNK1D; at 10 µM; hits give low values
TIE2 = details: KINOMEscan 353-kinase binding panel, qPCR, at 10 µM, hits give low values
JAK1(Kin.Dom.1) = details: KINOMEscan 353-kinase binding panel, qPCR, at 10 µM, hits give low values

Sequence of Ribosomal protein S6 kinase alpha-5 (Homo sapiens) (O75582 whole entry, looked up): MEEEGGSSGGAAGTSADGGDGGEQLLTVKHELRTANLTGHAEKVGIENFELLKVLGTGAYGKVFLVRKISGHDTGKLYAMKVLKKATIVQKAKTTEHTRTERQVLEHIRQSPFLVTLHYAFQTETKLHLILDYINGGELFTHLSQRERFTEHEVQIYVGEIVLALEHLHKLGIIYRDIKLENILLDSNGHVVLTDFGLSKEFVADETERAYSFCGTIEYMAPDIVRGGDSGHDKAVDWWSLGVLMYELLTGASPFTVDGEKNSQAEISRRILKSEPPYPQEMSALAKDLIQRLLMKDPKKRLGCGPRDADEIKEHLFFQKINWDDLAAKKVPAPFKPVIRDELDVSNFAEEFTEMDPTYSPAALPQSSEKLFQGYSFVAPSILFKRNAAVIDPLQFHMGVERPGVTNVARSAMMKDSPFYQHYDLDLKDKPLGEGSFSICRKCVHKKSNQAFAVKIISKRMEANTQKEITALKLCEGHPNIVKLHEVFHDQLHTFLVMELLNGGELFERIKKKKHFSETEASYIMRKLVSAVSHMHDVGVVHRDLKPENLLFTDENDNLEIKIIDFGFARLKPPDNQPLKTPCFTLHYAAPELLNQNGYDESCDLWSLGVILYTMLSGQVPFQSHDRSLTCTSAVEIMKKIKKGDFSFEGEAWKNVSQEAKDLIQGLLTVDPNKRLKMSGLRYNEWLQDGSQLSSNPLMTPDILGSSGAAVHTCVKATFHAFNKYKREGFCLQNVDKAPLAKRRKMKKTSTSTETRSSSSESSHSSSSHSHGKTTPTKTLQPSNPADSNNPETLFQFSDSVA
Sequence of SRSF protein kinase 1 (Homo sapiens) (Q96SB4 whole entry, looked up): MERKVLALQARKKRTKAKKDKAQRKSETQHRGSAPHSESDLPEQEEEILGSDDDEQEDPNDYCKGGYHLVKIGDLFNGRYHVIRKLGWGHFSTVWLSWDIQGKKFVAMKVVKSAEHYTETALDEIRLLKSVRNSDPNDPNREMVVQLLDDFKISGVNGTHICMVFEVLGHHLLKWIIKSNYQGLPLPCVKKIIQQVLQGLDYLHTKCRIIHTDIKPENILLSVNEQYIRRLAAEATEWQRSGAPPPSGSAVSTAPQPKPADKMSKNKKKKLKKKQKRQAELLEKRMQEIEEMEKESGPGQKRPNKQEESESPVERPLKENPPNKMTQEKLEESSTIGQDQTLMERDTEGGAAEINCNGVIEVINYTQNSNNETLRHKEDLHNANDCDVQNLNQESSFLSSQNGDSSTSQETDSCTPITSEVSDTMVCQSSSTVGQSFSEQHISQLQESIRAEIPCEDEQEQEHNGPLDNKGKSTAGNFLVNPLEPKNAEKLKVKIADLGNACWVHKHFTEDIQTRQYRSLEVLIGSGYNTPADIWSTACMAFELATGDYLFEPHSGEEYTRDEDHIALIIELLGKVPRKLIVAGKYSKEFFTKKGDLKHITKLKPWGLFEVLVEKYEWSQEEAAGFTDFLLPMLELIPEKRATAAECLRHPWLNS
Sequence of Protein-tyrosine kinase 6 (Homo sapiens) (Q13882 whole entry, looked up): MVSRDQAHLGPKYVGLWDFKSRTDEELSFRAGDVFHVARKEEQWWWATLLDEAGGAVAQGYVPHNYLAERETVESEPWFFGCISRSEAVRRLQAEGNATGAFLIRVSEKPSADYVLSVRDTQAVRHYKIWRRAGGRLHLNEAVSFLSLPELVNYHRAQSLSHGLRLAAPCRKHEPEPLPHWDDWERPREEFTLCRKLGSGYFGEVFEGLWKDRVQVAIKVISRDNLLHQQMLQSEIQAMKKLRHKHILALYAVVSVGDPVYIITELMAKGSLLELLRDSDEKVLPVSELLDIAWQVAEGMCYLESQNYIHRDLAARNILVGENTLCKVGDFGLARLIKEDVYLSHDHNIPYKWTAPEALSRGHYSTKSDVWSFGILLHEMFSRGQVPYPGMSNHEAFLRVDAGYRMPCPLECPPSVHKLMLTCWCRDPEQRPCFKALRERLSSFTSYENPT
Sequence of Receptor tyrosine-protein kinase erbB-4 (Homo sapiens) (Q15303 whole entry, looked up): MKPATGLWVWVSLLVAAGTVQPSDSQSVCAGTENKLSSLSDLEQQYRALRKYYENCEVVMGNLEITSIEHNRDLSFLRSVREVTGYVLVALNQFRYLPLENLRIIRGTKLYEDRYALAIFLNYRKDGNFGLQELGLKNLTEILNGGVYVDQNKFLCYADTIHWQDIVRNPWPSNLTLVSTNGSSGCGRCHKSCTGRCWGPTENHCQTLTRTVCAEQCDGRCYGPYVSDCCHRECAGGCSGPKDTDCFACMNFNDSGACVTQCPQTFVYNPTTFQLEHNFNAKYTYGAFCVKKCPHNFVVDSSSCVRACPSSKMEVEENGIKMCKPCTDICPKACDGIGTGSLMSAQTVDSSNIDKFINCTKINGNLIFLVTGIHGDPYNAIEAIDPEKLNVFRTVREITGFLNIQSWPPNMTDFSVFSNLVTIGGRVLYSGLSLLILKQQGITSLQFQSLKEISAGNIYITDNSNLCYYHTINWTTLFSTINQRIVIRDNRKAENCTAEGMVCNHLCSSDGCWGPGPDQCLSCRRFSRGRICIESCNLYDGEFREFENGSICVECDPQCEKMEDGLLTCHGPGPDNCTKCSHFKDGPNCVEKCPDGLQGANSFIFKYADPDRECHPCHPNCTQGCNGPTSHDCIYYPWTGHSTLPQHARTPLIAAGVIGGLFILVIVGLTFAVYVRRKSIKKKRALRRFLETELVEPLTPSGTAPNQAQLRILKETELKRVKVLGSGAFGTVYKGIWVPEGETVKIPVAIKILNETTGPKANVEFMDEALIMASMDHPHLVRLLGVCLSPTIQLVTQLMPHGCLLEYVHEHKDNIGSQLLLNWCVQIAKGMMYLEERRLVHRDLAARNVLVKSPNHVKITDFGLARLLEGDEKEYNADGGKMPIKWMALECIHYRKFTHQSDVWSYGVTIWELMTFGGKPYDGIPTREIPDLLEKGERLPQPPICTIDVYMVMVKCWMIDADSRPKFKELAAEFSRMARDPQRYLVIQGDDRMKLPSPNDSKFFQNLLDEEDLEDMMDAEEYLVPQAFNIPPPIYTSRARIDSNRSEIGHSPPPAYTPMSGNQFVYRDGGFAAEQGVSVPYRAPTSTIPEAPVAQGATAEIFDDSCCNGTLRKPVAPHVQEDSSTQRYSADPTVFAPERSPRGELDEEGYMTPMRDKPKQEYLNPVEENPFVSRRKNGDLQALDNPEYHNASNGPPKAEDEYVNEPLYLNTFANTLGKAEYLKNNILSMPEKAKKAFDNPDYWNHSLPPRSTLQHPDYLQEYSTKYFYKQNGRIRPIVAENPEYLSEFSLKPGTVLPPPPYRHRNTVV
Sequence of Ribosomal protein S6 kinase alpha-3 (Homo sapiens) (P51812 whole entry, looked up): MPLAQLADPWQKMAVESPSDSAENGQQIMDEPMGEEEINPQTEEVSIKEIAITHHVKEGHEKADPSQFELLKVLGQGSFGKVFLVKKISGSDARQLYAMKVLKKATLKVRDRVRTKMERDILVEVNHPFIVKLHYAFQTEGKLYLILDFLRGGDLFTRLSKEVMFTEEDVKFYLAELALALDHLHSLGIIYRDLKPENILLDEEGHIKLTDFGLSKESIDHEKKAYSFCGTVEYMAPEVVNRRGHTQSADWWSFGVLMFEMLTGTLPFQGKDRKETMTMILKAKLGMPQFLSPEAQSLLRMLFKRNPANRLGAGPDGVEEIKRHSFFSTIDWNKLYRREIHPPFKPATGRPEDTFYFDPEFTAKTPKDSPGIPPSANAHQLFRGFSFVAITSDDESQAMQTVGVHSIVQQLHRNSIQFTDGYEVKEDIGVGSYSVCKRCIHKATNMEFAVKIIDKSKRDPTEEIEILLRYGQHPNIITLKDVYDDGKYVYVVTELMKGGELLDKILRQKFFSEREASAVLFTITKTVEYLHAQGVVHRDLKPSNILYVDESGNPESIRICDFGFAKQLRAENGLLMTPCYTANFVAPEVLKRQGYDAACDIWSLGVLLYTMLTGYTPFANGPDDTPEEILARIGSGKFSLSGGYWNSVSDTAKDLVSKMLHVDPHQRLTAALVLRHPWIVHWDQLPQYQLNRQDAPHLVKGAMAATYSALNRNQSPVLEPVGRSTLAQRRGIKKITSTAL
Sequence of Activated CDC42 kinase 1 (Homo sapiens) (Q07912 whole entry, looked up): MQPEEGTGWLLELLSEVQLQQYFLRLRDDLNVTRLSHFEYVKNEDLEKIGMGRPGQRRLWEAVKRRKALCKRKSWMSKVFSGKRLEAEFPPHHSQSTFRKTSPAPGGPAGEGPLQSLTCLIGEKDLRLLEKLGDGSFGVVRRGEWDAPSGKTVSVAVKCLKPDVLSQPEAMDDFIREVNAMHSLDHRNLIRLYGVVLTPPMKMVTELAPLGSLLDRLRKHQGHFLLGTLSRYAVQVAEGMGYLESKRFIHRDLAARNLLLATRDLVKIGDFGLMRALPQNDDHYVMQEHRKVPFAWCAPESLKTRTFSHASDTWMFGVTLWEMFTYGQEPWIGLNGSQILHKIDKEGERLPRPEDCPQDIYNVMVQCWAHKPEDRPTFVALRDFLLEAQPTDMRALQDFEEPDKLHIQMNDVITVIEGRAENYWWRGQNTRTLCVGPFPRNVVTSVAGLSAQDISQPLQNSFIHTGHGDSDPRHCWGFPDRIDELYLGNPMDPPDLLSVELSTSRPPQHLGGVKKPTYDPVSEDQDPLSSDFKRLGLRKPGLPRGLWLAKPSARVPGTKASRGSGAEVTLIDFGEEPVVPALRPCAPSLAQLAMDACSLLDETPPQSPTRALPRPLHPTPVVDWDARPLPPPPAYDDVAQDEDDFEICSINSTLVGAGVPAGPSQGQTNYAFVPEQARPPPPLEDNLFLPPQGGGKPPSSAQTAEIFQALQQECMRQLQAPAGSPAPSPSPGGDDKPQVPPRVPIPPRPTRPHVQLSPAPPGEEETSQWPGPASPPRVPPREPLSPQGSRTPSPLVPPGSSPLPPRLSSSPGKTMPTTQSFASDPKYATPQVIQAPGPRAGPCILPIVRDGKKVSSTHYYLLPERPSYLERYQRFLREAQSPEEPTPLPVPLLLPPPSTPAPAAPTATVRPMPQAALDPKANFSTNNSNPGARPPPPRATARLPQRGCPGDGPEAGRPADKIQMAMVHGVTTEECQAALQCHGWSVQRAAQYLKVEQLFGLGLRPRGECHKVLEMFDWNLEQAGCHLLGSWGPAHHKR

percent of control binding (ANKK1): 100% (inactive) | percent of control binding [1]: 100% (inactive) | percent of control binding [2]: 75% (inactive) | percent of control binding ([3]; RPS6KA5(Kin.Dom.1)): 100% (inactive) | percent of control binding ([3]; RPS6KA5(Kin.Dom.2)): 100% (inactive) | percent of control binding (RIPK2): 83% (inactive) | percent of control binding (PFTK1): 88% (inactive) | percent of control binding [4]: 100% (inactive) | percent of control binding (TXK): 99% (inactive) | percent of control binding [5]: 100% (inactive) | percent of control binding [6]: 100% (inactive) | percent of control binding (PCTK1): 84% (inactive) | percent of control binding (RIPK1): 100% (inactive) | percent of control binding [7]: 100% (inactive) | percent of control binding [8]: 100% (inactive) | percent of control binding [9]: 90% (inactive) | percent of control binding (BMPR1B): 100% (inactive) | percent of control binding (ADCK4): 100% (inactive) | percent of control binding [10]: 100% (inactive) | percent of control binding (BIKE): 98% (inactive) | percent of control binding [11]: 100% (inactive) | percent of control binding (LATS2): 89% (inactive) | percent of control binding (EPHA6): 93% (inactive) | percent of control binding [12]: 92% (inactive) | percent of control binding (ADCK3): 72% (inactive) | percent of control binding (PIK3C2B): 90% (inactive) | percent of control binding [13]: 100% (inactive) | percent of control binding (ERK3): 86% (inactive) | percent of control binding [14]: 98% (inactive) | percent of control binding (MEK2): 87% (inactive) | percent of control binding (ERK5): 100% (inactive) | percent of control binding (CHEK2): 100% (inactive) | percent of control binding [15]: 99% (inactive) | percent of control binding (TIE2): 100% (inactive) | percent of control binding (JAK1(Kin.Dom.1)): 100% (inactive)
Compound: Cc1cc2nc(NCCCO)n(CC(=O)c3cc(C(C)(C)C)c(O)c(C(C)(C)C)c3)c2cc1C
